From the NIST ThermoML archive (doi:10.1021/acs.jced.7b00483)
± gives the expanded uncertainty stated by the source.

Test: molar heat capacity at constant pressure
Conditions: 100 kPa, Liquid, Flow calorimetry

O [water]
Conditions	molar heat capacity at constant pressure [J/K/mol]
298.15 K	75.66 ± 0.16
303.15 K	75.57 ± 0.16
308.15 K	75.54 ± 0.16
313.15 K	75.5 ± 0.16
318.15 K	75.47 ± 0.16
323.15 K	75.45 ± 0.16
328.15 K	75.45 ± 0.16
333.15 K	75.47 ± 0.16
338.15 K	75.5 ± 0.16
343.15 K	75.57 ± 0.16
348.15 K	75.66 ± 0.16
353.15 K	75.77 ± 0.16
358.15 K	75.9 ± 0.16
363.15 K	76.02 ± 0.16
